Like-named read-outs stand apart in the source and are kept apart here. Numbered stars: 1 amine (or outer) side, 2 acyl side, 3 side chain; on linkers, the order of the positions; unused ones are H or OH. Square brackets hold non-standard residues; d marks the D form. Side chains are listed from the residue outwards. Peptide text beside a SMILES is read from it. * marks the point of attachment. C18 diacid = O=C(O)CCCCCCCCCCCCCCCCC(=O)*; γGlu = O=C(O)[C@H](CCC(=O)[*:2])N[*:1]; AEEA = NCCOCCOCC(=O)O; Aib = CC(C)(N)C(=O)O

One may read the EC50 as the midpoint of the concentration-response curve.

Holding throughout (format): cell-based
The target of test [1] is T1, human GIP R (Homo sapiens, UniProt P48546).
T1 construct: expressed in transfected cells
T1 sequence (P48546 22-466): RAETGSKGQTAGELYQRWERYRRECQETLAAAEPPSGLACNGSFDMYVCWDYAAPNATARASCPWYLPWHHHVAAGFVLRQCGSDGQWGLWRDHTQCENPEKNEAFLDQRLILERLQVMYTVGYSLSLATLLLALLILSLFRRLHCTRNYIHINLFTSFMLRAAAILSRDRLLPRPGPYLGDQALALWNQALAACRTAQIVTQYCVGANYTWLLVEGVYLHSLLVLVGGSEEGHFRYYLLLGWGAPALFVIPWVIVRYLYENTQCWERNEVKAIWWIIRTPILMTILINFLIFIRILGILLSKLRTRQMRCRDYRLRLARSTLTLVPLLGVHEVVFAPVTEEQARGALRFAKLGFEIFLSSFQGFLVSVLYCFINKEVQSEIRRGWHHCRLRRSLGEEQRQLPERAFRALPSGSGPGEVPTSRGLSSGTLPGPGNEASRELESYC
Kind of test: cAMP induction in HEK293 cells expressing human GIP R (AlphaScreen cAMP kit).

Test [2] concerns the target T2, human GLP-1 R (Homo sapiens, UniProt P43220).
T2 construct: expressed in transfected cells
Kind of test: cAMP induction in HEK293 cells expressing human GLP-1 R (AlphaScreen cAMP kit). In general terms: In Alpha technology, singlet oxygen from a donor bead excites a nearby acceptor bead.
Protocol: Briefly, HEK293 cells expressing the human GIP R, GLP-1 R or GCG R (stable cell lines generated through transfection of the cDNA for human GIP R, GLP-1 R or GCG R and selection of stable clones) were seeded at 30,000 cells/well in 96-well microtiter plates coated with 0.01% poly-L-lysine, and grown for 1 day in culture in 200 μl growth medium (DMEM, 10% FCS, Penicillin (100 IU/ml), Streptomycin (100 μg/ml)). On the day of analysis, growth medium was removed and the cells were washed once with 150 μl Tyrode's buffer (Tyrode's Salts (9.6 g/l), 10 mM HEPES, pH 7.4). […] The Assay buffer was removed and cells are lysed in 80 μl Lysis buffer (0.1% w/v BSA, 5 mM HEPES, 0.3% v/v Tween-20) per well. From each well 10 μl of lysed cells were transferred to a 384-well plate and mixed with 15 μl bead-mix (1 Unit/15 μl anti-cAMP Acceptor Beads, 1 Unit/15 μl Donor Beads, and 1 Unit/15 μl Biotinylated cAMP in Assay Buffer). The plates were mixed and incubated in the dark for an hour at room temperature before measuring using an Envision™ plate reader (Perkin-Elmer).
The resulting cAMP curves were plotted as absolute cAMP concentrations (nM) over log (test compound concentration) and analyzed using the curve fitting program XLfit.
Parameters calculated to describe both the potency as well as the agonistic activity of each test compound on the receptors were:
EC50, a concentration resulting in a half-maximal elevation of cAMP levels, reflecting the potency of the test compound.

Test [3] deals with T3, human GCG R (Homo sapiens, UniProt P47871).
T3 construct: expressed in transfected cells
T3 sequence (P47871 26-477): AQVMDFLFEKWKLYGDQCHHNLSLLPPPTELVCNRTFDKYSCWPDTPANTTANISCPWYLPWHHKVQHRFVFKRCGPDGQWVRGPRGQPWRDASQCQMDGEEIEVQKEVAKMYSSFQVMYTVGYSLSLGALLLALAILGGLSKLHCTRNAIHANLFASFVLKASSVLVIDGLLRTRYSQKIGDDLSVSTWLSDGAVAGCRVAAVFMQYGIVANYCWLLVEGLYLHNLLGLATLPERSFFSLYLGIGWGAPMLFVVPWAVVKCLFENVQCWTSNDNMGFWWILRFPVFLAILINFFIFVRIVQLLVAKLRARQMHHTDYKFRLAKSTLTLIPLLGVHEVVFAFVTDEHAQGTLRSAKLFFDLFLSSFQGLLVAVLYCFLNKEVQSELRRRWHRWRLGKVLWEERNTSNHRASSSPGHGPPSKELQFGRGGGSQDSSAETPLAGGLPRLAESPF
Put plainly: cAMP induction in HEK293 cells expressing human GCG R (AlphaScreen cAMP kit).

Setting [4] is: Table 2b (most comprehensive data), average EC50, cAMP, read-out: GIP R (EC50 in nM).
Setting [5] is: Table 2b (most comprehensive data), average EC50, cAMP, HEK293 cells expressing human GCG R, read-out: GCG R (EC50 in nM).
The mark [6] stands for this setting: Table 2, average EC50, cAMP, HEK293 cells expressing human GLP-1 R, read-out: GLP1 R (EC50 in nM).
Setting [7] is: Table 2b (most comprehensive data), average EC50, cAMP, HEK293 cells expressing human GLP-1 R, read-out: GLP1 R (EC50 in nM).
The mark [8] stands for this setting: GIP R (EC50 in nM), Table 2, average EC50, cAMP.
[9] abbreviates: GIP R (EC50 in nM), Table 2b (most comprehensive data), average EC50, cAMP.

T2 sequence (P43220 24-463): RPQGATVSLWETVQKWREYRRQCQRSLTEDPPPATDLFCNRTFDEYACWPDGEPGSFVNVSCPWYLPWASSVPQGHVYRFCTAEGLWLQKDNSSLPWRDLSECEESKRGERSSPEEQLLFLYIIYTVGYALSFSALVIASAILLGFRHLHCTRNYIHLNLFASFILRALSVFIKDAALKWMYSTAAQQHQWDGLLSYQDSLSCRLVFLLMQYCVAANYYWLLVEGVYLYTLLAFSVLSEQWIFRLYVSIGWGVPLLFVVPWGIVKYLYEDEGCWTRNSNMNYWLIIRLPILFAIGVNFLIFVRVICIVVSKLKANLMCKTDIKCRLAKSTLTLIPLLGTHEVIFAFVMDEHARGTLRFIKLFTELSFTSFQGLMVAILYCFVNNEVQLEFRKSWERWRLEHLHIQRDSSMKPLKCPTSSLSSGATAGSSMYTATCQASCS

With `CC[C@H](C)[C@H](NC(=O)[C@H](CO)NC(=O)[C@H](Cc1ccc(O)cc1)NC(=O)[C@H](CC(=O)O)NC(=O)[C@H](CO)NC(=O)[C@@H](NC(=O)[C@H](Cc1ccccc1)NC(=O)[C@@H](NC(=O)CNC(=O)[C@H](CCC(N)=O)NC(=O)C(C)(C)NC(=O)[C@@H](N)Cc1ccc(O)cc1)[C@@H](C)O)[C@@H](C)O)C(=O)N[C@@H](Cc1ccc(O)cc1)C(=O)N[C@@H](CC(C)C)C(=O)N[C@@H](CC(=O)O)C(=O)N[C@@H](CCCCN)C(=O)N[C@@H](CCCCNC(=O)CC[C@H](NC(=O)CCCCCCCCCCCCCCCCC(=O)O)C(=O)O)C(=O)N[C@@H](C)C(=O)N[C@@H](CCC(N)=O)C(=O)N[C@@H](CCCNC(=N)N)C(=O)N[C@@H](C)C(=O)N[C@@H](Cc1ccccc1)C(=O)N[C@H](C(=O)N[C@@H](CCC(=O)O)C(=O)N[C@@H](Cc1c[nH]c2ccccc12)C(=O)N[C@@H](CC(C)C)C(=O)N[C@@H](CC(C)C)C(=O)N[C@@H](C)C(=O)N[C@@H](CCC(N)=O)C(=O)NCC(=O)N1CCC[C@H]1C(=O)N[C@@H](CO)C(=O)N[C@@H](CO)C(=O)NCC(=O)N[C@@H](C)C(=O)N1CCC[C@H]1C(=O)N1CCC[C@H]1C(=O)N1CCC[C@H]1C(=O)N[C@@H](CO)C(N)=O)C(C)C` [Compound 34] (HELM PEPTIDE1{Y.[Aib].Q.G.T.F.T.S.D.Y.S.I.Y.L.D.K.K.A.Q.R.A.F.V.E.W.L.L.A.Q.G.P.S.S.G.A.P.P.P.S.[am]}|PEPTIDE2{[O=C(O)CCCCCCCCCCCCCCCCC(=O)[*:2]].[gGlu]}$PEPTIDE1,PEPTIDE2,17:R3-2:R2$$$V2.0), the half-maximal effective concentration (EC50) in test [1] (setting [4]) was 0.007 nM; in test [2], 0.0066 nM; in test [3] (setting [5]) it was 0.11 nM.
Consider `CCCCCCCCCCCCCCCC(=O)N[C@@H](CCC(=O)NCCCC[C@H](NC(=O)[C@H](CO)NC(=O)[C@H](Cc1ccc(O)cc1)NC(=O)[C@H](CC(=O)O)NC(=O)[C@H](CO)NC(=O)[C@@H](NC(=O)[C@H](Cc1ccccc1)NC(=O)[C@@H](NC(=O)CNC(=O)[C@H](CCC(N)=O)NC(=O)C(C)(C)NC(=O)[C@@H](N)Cc1ccc(O)cc1)[C@@H](C)O)[C@@H](C)O)C(=O)N[C@@H](Cc1ccc(O)cc1)C(=O)N[C@@H](CC(C)C)C(=O)N[C@@H](CCC(=O)O)C(=O)N[C@@H](CCCCN)C(=O)N[C@@H](CCCCN)C(=O)N[C@@H](C)C(=O)N[C@@H](C)C(=O)N[C@@H](CCCCN)C(=O)N[C@@H](CCC(=O)O)C(=O)N[C@@H](Cc1ccccc1)C(=O)N[C@H](C(=O)N[C@@H](CCC(=O)O)C(=O)N[C@@H](Cc1c[nH]c2ccccc12)C(=O)N[C@@H](CC(C)C)C(=O)N[C@@H](CC(C)C)C(=O)N[C@@H](CO)C(=O)N[C@@H](C)C(N)=O)C(C)C)C(=O)O` [Compound 25] (HELM PEPTIDE1{Y.[Aib].Q.G.T.F.T.S.D.Y.S.K.Y.L.E.K.K.A.A.K.E.F.V.E.W.L.L.S.A.[am]}|PEPTIDE2{[CCCCCCCCCCCCCCCC(=O)[*:2]].[gGlu]}$PEPTIDE1,PEPTIDE2,12:R3-2:R2$$$V2.0), for which the EC50 in test [1] (Table 2, average EC50, cAMP, read-out: GIP R (EC50 in nM)) was 0.25 nM; in test [1] (setting [4]), 0.25 nM; in test [2] (setting [6]) it was 0.28 nM; in test [2] (setting [7]) it was 0.28 nM; in test [3] (Table 2, average EC50, cAMP, HEK293 cells expressing human GCG R, read-out: GCG R (EC50 in nM)), 0.3 nM.
Consider `CC[C@H](C)[C@H](NC(=O)[C@H](CO)NC(=O)[C@H](Cc1ccc(O)cc1)NC(=O)[C@H](CC(=O)O)NC(=O)[C@H](CO)NC(=O)[C@@H](NC(=O)[C@H](Cc1ccccc1)NC(=O)[C@@H](NC(=O)CNC(=O)[C@H](CCC(N)=O)NC(=O)C(C)(C)NC(=O)[C@@H](N)Cc1ccc(O)cc1)[C@@H](C)O)[C@@H](C)O)C(=O)N[C@@H](Cc1ccc(O)cc1)C(=O)N[C@@H](CC(C)C)C(=O)N[C@@H](CCC(=O)O)C(=O)N[C@@H](CCCCN)C(=O)N[C@@H](CCCCNC(=O)COCCOCCNC(=O)COCCOCCNC(=O)CC[C@H](NC(=O)CCCCCCCCCCCCCCCCC(=O)O)C(=O)O)C(=O)N[C@@H](C)C(=O)N[C@@H](CCC(N)=O)C(=O)N[C@@H](CCCNC(=N)N)C(=O)N[C@@H](C)C(=O)N[C@@H](Cc1ccccc1)C(=O)N[C@H](C(=O)N[C@@H](CCC(=O)O)C(=O)N[C@@H](Cc1c[nH]c2ccccc12)C(=O)N[C@@H](CC(C)C)C(=O)N[C@@H](CC(C)C)C(=O)N[C@@H](CCCNC(=N)N)C(=O)N[C@@H](C)C(N)=O)C(C)C` [Compound 51] (H-Y[Aib]QGTFTSDYSIYLEKK([AEEA-AEEA-γGlu-C18 diacid])AQRAFVEWLLRA-NH2), for which the concentration for a half-maximal effect (EC50) was 0.033 nM in test [1] (setting [4]), 0.026 nM in test [2] (setting [7]) and 1.4 nM in test [3] (setting [5]).
Take `CC[C@H](C)[C@H](NC(=O)[C@H](CO)NC(=O)[C@H](Cc1ccc(O)cc1)NC(=O)[C@H](CC(=O)O)NC(=O)[C@H](CO)NC(=O)[C@@H](NC(=O)[C@H](Cc1ccccc1)NC(=O)[C@@H](NC(=O)CNC(=O)[C@H](CCC(N)=O)NC(=O)C(C)(C)NC(=O)[C@@H](N)Cc1ccc(O)cc1)[C@@H](C)O)[C@@H](C)O)C(=O)N[C@@H](Cc1ccc(O)cc1)C(=O)N[C@@H](CC(C)C)C(=O)N[C@@H](CCC(=O)O)C(=O)N[C@@H](CO)C(=O)N[C@@H](CCCCN)C(=O)N[C@@H](C)C(=O)N[C@@H](C)C(=O)N[C@@H](Cc1c[nH]cn1)C(=O)N[C@@H](CC(=O)O)C(=O)N[C@@H](Cc1ccccc1)C(=O)N[C@H](C(=O)N[C@@H](CCC(=O)O)C(=O)N[C@@H](Cc1c[nH]c2ccccc12)C(=O)N[C@@H](CC(C)C)C(=O)N[C@@H](CC(C)C)C(=O)N[C@@H](CO)C(=O)N[C@@H](C)C(N)=O)C(C)C` [Compound 18] (HELM PEPTIDE1{Y.[Aib].Q.G.T.F.T.S.D.Y.S.I.Y.L.E.S.K.A.A.H.D.F.V.E.W.L.L.S.A.[am]}$$$$V2.0): the concentration giving a half-maximal response (EC50) in test [1] (setting [8]) turned out to be 0.07 nM; in test [2] (setting [6]), 0.021 nM; in test [2] (setting [7]), 0.15 nM; in test [3], 0.15 nM.
For `CC(C)C[C@H](NC(=O)[C@H](CC(C)C)NC(=O)[C@H](Cc1c[nH]c2ccccc12)NC(=O)[C@H](CCC(=O)O)NC(=O)[C@@H](NC(=O)[C@H](Cc1ccccc1)NC(=O)[C@H](CC(=O)O)NC(=O)[C@H](Cc1c[nH]cn1)NC(=O)[C@H](C)NC(=O)[C@H](C)NC(=O)[C@H](CCCCN)NC(=O)[C@H](CO)NC(=O)[C@H](CC(=O)O)NC(=O)[C@H](CC(C)C)NC(=O)[C@H](Cc1ccc(O)cc1)NC(=O)[C@H](CCCCN)NC(=O)[C@H](CO)NC(=O)[C@H](Cc1ccc(O)cc1)NC(=O)[C@H](CC(=O)O)NC(=O)[C@H](CO)NC(=O)[C@@H](NC(=O)[C@H](Cc1ccccc1)NC(=O)[C@@H](NC(=O)CNC(=O)[C@H](CCC(N)=O)NC(=O)C(C)(C)NC(=O)[C@@H](N)Cc1ccc(O)cc1)[C@@H](C)O)[C@@H](C)O)C(C)C)C(=O)N[C@@H](CCCNC(=N)N)C(=O)N[C@@H](C)C(N)=O` [Compound 3] (HELM PEPTIDE1{Y.[Aib].Q.G.T.F.T.S.D.Y.S.K.Y.L.D.S.K.A.A.H.D.F.V.E.W.L.L.R.A.[am]}$$$$V2.0), the EC50 in test [1] (setting [8]) worked out at 0.13 nM; in test [1] (setting [9]), 0.015 nM; in test [2] (setting [6]), 0.015 nM; in test [2] (setting [7]), 0.022 nM; in test [3] it was 0.022 nM.
As to `CC[C@H](C)[C@H](NC(=O)[C@H](CO)NC(=O)[C@H](Cc1ccc(O)cc1)NC(=O)[C@H](CC(=O)O)NC(=O)[C@H](CO)NC(=O)[C@@H](NC(=O)[C@H](Cc1ccccc1)NC(=O)[C@@H](NC(=O)CNC(=O)[C@H](CCC(N)=O)NC(=O)C(C)(C)NC(=O)[C@@H](N)Cc1ccc(O)cc1)[C@@H](C)O)[C@@H](C)O)C(=O)N[C@@H](Cc1ccc(O)cc1)C(=O)N[C@@H](CC(C)C)C(=O)N[C@@H](CC(=O)O)C(=O)N[C@@H](CCC(=O)O)C(=O)N[C@@H](CCCCN)C(=O)N[C@@H](C)C(=O)N[C@@H](C)C(=O)N[C@@H](CCCCN)C(=O)N[C@@H](CC(=O)O)C(=O)N[C@@H](Cc1ccccc1)C(=O)N[C@H](C(=O)N[C@@H](CCC(=O)O)C(=O)N[C@@H](Cc1c[nH]c2ccccc12)C(=O)N[C@@H](CC(C)C)C(=O)N[C@@H](CC(C)C)C(=O)N[C@@H](CO)C(=O)N[C@@H](C)C(N)=O)C(C)C` [Compound 17] (HELM PEPTIDE1{Y.[Aib].Q.G.T.F.T.S.D.Y.S.I.Y.L.D.E.K.A.A.K.D.F.V.E.W.L.L.S.A.[am]}$$$$V2.0), the concentration giving a half-maximal response (EC50) is 0.091 nM in test [1] (setting [8]); 0.013 nM in test [1] (setting [9]); 0.011 nM in test [2] (setting [6]); 0.16 nM in test [2] (setting [7]); 0.16 nM in test [3].
